Measured values taken from US20240174644A1, “QUINOXALINE UREA INHIBITORS OF IKK-BETA AND NF-KB” (BOARD OF REGENTS OF THE UNIVERSITY OF NEBRASKA, priority 2021, published 2024).

Legend:
[1] = tested on: MM1S cells; test: Growth inhibition assay in MM1S cells (Presto blue); format: cell-based; conditions: Homo sapiens, MM1.S, 120 h, MM1S cells (multiple myeloma model), 5-day incubation, triplicate
Experimental: MM1S cells were seeded (20K cells/well) and increasing concentrations of the inhibitors were added to these cells in triplicate. The plates were incubated for 5 -days after which Presto blue (544/590 ex/em wavelengths) was added and plates read after additional 15 min incubation at 37° C. The IC50 values were derived by curve fitting the data.

[2] = tested on: caspase 3/7; test: Caspase 3/7 activation assay in MM1S cells (Apo-One homogeneous caspase 3/7 assay); format: cell-based; conditions: inhibitor 10 μM, 24 h, fold change relative to the DMSO control
Experimental: MM1 S cells were seeded (25K cells/well) and inhibitors (10 μM) were added to these cells in triplicate. The plates were incubated for 24 h. Under multiplexing conditions, the cell viability using Alamar Blue assay and caspase activity using Apo-One homogeneous caspase 3/7 assay was determined. Data represented as fold change relative to the DMSO control.

Row | IC50 [1] [µM] | Compound | Caspase 3/7 activation [2] [fold change]
1 | 5.43 ± 0.16 | Cn1cc(-c2cnc3ccc(NC(=O)Nc4ccc(F)c(Br)c4)cc3n2)cn1 [Compound 1] | –
2 | 2.83 ± 0.09 | Cn1cc(-c2cnc3ccc(NC(=O)Nc4cccc(Br)c4)cc3n2)cn1 [Compound 2] | 1.06 ± 0.03
3 | > 20 | Cn1cc(-c2cnc3ccc(NC(=O)Nc4ccc(F)cc4)cc3n2)cn1 [Compound 3, 1-(4-fluorophenyl)-3-(3-(1-methyl-1H-pyrazol-4-yl)quinoxalin-6-yl)urea] | 1.03 ± 0.06
4 | 4.67 ± 0.09 | Cn1cc(-c2cnc3ccc(NC(=O)Cc4ccc(F)c(Br)c4)cc3n2)cn1 [Compound 4] | –
5 | 5.56 ± 0.66 | Cn1cc(-c2ccc3ccc(NC(=O)Nc4ccc(F)c(Br)c4)cc3n2)cn1 [Compound 5] | –
6 | 10.6 ± 0.4 | Cn1cc(-c2cnc3ccc(NC(=O)Nc4ccc(F)c(Br)c4)cc3c2)cn1 [Compound 6, 1-(3-Bromo-4-fluorophenyl)-3-(3-(1-methyl-1H-pyrazol-4-yl)quinolin-6-yl)urea] | 1.36 ± 0.04
7 | 2.85 ± 0.09 | Cn1ccc(-c2cnc3ccc(NC(=O)Nc4ccc(F)c(Br)c4)cc3n2)c1 [Compound 7, 1-(3-Bromo-4-fluorophenyl)-3-(3-(1-methyl-1 H-pyrrol-3-yl)quinoxalin-6-yl)urea] | 1.51 ± 0.01
8 | 5.38 ± 0.13 | Cn1cc(-c2cnc3ccc(NC(=O)Nc4ccc(F)c(C(F)(F)F)c4)cc3n2)cn1 [Compound 8] | 1.96 ± 0.05
9 | 0.75 ± 0.01 | Cn1cc(-c2cnc3ccc(NC(=O)Nc4ccc(F)c(C(F)(F)F)c4F)cc3n2)cn1 [Compound 9] | 9.79 ± 2.47
